Test results reported in article PMC7336994, “Cytotoxic compounds from the leaves and stems of the endemic Thai plant Mitrephora sirikitiae” (Pharmaceutical Biology, 2020).
Read-outs that look alike come from different tables or passages of the source.

What was measured:
[1] = tested on: MCF-7 (human breast cancer); assay: SRB cytotoxicity assay, MCF-7 cells; type: cell-based; details: read-out: IC50 MCF-7
Protocol: (§1) The methanol extracts and the isolated compounds were evaluated for their cytotoxic activities against several cell lines, including murine lymphocytic leukaemia (P-388), human oral epidermoid carcinoma (KB), human colon carcinoma (Col-2 and HT-29), human breast cancer (MCF-7), human lung carcinoma (Lu-1 and A549), rat glioma (ASK), and noncancerous human embryonic kidney cell (HEK-293) by sulforhodamine B (SRB) assay in 96-well microtiter plates (Skehan et al. [1990]). This method measures the cellular protein content of cultures in 96-well microtiter plates. The cell lines were seeded into 96-well microtiter plates and treated with the test compounds at concentrations of 0.16–20 µg/mL for 72 h, except for the P-388 cells, which were treated for 48 h. Then the cell cultures were fixed with 20% trichloroacetic acid (Merck) and stained with 0.4% SRB (Sigma-Aldrich) dissolved in 1% acetic acid (Merck) for 1 h. The cellular-protein-bound dye was extracted with 10 mM unbuffered Trisbase solution (pH 10.5) (Sigma-Aldrich) for the determination of optical density at 510 nm with a microtiter plate reader (Thermo Scientific™ Multiskan™ GO Microplate Spectrophotometer). The cytotoxic potency was expressed as median inhibition concentrations (IC50), the concentration that inhibits 50% of cell viability (µg/mL and µM). The IC50 values were determined from the nonlinear regression curve fit in GraphPad Prism software (version 5). Ellipticine (Sigma-Aldrich), a cytotoxic plant alkaloid causing topoisomerase II inhibition and DNA intercalation, was used as a positive control.

[2] = tested on: HT-29 (human colon carcinoma); assay: SRB cytotoxicity assay, HT-29 cells; type: cell-based; details: read-out: IC50 HT-29
Protocol: as §1

[3] = tested on: P-388 (murine lymphocytic leukaemia); assay: SRB cytotoxicity assay, P-388 cells; type: cell-based; details: Mus musculus, read-out: IC50 P-388
Protocol: as §1

[4] = tested on: Hek-293 (noncancerous human embryonic kidney cell); assay: SRB cytotoxicity assay, Hek-293 cells; type: cell-based; details: read-out: IC50 Hek-293
Protocol: as §1

[5] = tested on: A549 (human lung carcinoma); assay: SRB cytotoxicity assay, A549 cells; type: cell-based; details: read-out: IC50 A549
Protocol: as §1

[6] = tested on: KB (human oral epidermoid carcinoma); assay: SRB cytotoxicity assay, KB cells; type: cell-based; details: 72 h, read-out: IC50 KB
Protocol: as §1

ASK (rat glioma) = assay: SRB cytotoxicity assay, ASK cells; type: cell-based; details: 72 h, read-out: IC50 ASK
Protocol: as §1

[7] = tested on: P-388, KB, HT-29, MCF-7, A549, ASK and Hek-293 cells; assay: SRB cytotoxicity assay, panel of tested cell lines (summary statements); type: cell-based
Protocol: as §1

[8] = MCF7, SRB assay, 0.16–20 µg/mL, 72 h
[9] = HT-29, SRB assay, 0.16–20 µg/mL, 72 h
[10] = P388, SRB assay, 0.16–20 µg/mL, 48 h
[11] = Homo sapiens, HEK293, 72 h, SRB assay, non-cancerous cells, 0.16–20 µg/mL, 72 h
[12] = SRB assay, non-cancerous cells, 0.16–20 µg/mL, 72 h
[13] = A549, SRB assay, 0.16–20 µg/mL, 72 h
[14] = read-out: IC50 values, range for some of the tested cells
[15] = read-out: IC50 values, range against all tested cell lines

Row | SMILES | IC50 [1, 8] | IC50 [2, 9] | IC50 [3, 10] | IC50 [4, 11] | IC50 [4, 12] | IC50 [5, 13] | IC50 ([6]; SRB assay, 0.16–20 µg/mL) | IC50 (ASK (rat glioma); SRB assay, 0.16–20 µg/mL) | IC50 ([7]; P-338, HT-29, MCF-7 and A549, read-out: IC50 values, range over four tested cell lines) | IC50 [7, 14] | melting point | IC50 ([1]; MCF7, 72 h) | IC50 ([2]; HT-29, 72 h) | IC50 ([3]; P388, 48 h) | IC50 ([4]; Homo sapiens, HEK293, 72 h) | IC50 ([5]; A549, 72 h) | IC50 [6] | IC50 (ASK (rat glioma)) | IC50 [7, 15]
1 | COc1cccc2c1C(=O)c1c(C)cc(=O)[nH]c1C2=O [Compound 15, 6-methoxymarcanine A] | 8.33 ± 0.63 µM | 10.15 ± 0.07 µM | 9.55 ± 2.83 µM | > 20 µM | > 20 µM | 12.3 ± 0.37 µM | 38.1 ± 0.52 µM | 38.7 ± 1.12 µM | 8.33 to 12.3 µM | 2.03 to 19.7 µM |  |  |  |  |  |  |  |  | 
2 | COc1cc(C2OCC(C(=O)c3ccc(OC)c(OC)c3)C2CO)ccc1O (stereo not drawn) [Compound 6, mitrephoran] | 28.63 ± 0.15 µM | > 20 µM | > 20 µM | > 20 µM |  | > 20 µM | > 20 µM | > 20 µM |  |  | 146 to 148 °C |  |  |  |  |  |  |  | 
3 | COc1ccc([C@@H]2Oc3c(OC)cc(CCCO)cc3[C@H]2CO)cc1OC [Compound 7, 3′,4-O-dimethylcedrusin] | 3.77 ± 0.05 µM | 19.7 ± 1.52 µM | 25.9 ± 2.99 µM | 8.48 ± 4.04 µM |  | 10.3 ± 2.49 µM | 2.03 ± 0.11 µM | > 20 µM |  | 2.03 to 19.7 µM |  |  |  |  |  |  |  |  | 
4 | O=C1c2ccccc2-c2c3c(cc4ccnc1c24)OCO3 [Compound 5, liriodenine] |  |  |  |  |  |  |  |  |  |  |  | 9.2 ± 0.25 µM | 10.6 ± 0.36 µM | 9.6 ± 0.58 µM | 8.07 ± 0.11 µM | 9.45 ± 0.18 µM | 11.02 ± 0.11 µM | 10.7 ± 0.95 µM | 6.59 to 11 µM
5 | COc1cc(OC)cc(C2OCC3C(c4ccc(OC)c(OC)c4)OCC23)c1 (stereo not drawn) [Compound 8, 2-(3,4-dimethoxyphenyl)-6-(3,5-dimethoxyphenyl)-3,7-dioxabicyclo[3.3.0]octane] | 21.9 ± 2.96 µM | > 20 µM | > 20 µM | 16.5 ± 0.94 µM |  | > 20 µM | 15.9 ± 0.36 µM | > 20 µM |  |  |  |  |  |  |  |  |  |  | 
6 | Cc1c2ccncc2c(C)c2c1[nH]c1ccccc12 [Ellipticine, reference compound] | 2.15 ± 0.08 µM | 2.4 ± 0.04 µM | 2.03 ± 0.08 µM | 2.68 ± 0.08 µM |  | 2.64 ± 0.24 µM | 2.36 ± 0.04 µM | 2.56 ± 0.04 µM |  |  |  |  |  |  |  |  |  |  | 
7 | CC1(C(=O)O)CCCC2(C)C1CC(O)C13CC4C(CC21)C4(C)C3 (stereo not drawn) [Compound 14, ciliaric acid] | > 20 µM | > 20 µM | > 20 µM | > 20 µM |  | > 20 µM | > 20 µM | > 20 µM |  |  |  |  |  |  |  |  |  |  | 
8 | COc1ccc(C(=O)[C@H]2CO[C@H](c3ccc(OC)c(OC)c3)[C@H]2CO)cc1OC [Compound 3, magnone A] | 4.4 ± 0.1 µM | 27.6 ± 3.53 µM | 8.96 ± 0.7 µM | > 20 µM | 23.2 ± 1.17 µM | 37.9 ± 5.42 µM | 20.6 ± 3.88 µM | > 20 µM |  | 2.03 to 19.7 µM |  |  |  |  |  |  |  |  | 
9 | COc1cccc2c1-c1c3c(cc4ccnc(c14)C2=O)OCO3 [Compound 11, oxoputerine] | 7.05 ± 0.2 µM | 7.28 ± 0.23 µM | 6.72 ± 0.36 µM | 7.31 ± 0.07 µM |  | 7.21 ± 0.79 µM | 7.67 ± 0.3 µM | 6.59 ± 0.43 µM |  |  |  |  |  |  |  |  |  |  | 6.59 to 11 µM
10 | COc1cc2c(cc1O)-c1cc3ccc(O)c(OC)c3c[n+]1CC2 [Compound 16, stepharanine] |  |  |  |  |  |  |  |  |  |  |  | > 20 µM | > 20 µM | > 20 µM | > 20 µM | > 20 µM | > 20 µM | > 20 µM | 
11 | CCC(CCC(C)C1CCC2C3CC=C4CC(OC5OC(CO)C(O)C(O)C5O)CCC4(C)C3CCC12C)C(C)C (stereo not drawn) [Compound 4, stigma-5-en-3-O-β-glucopyranoside] | > 20 µM | > 20 µM | > 20 µM | > 20 µM |  | > 20 µM | > 20 µM | > 20 µM |  |  |  |  |  |  |  |  |  |  | 
12 | COc1ccc(C2OCC3C(c4ccc(OC)c(OC)c4)OCC23)cc1OC (single isomer, unassigned; (-)) [Compound 1, (–)-epieudesmin] | > 20 µM | > 20 µM | > 20 µM | > 20 µM |  | > 20 µM | > 20 µM | > 20 µM |  |  |  |  |  |  |  |  |  |  | 
13 | COc1cc(/C=C/C(=O)NCCc2ccc(O)cc2)ccc1O [Compound 9, N-trans-feruloyltyramine] | > 20 µM | > 20 µM | > 20 µM | > 20 µM |  | > 20 µM | > 20 µM | > 20 µM |  |  |  |  |  |  |  |  |  |  | 
14 | COc1cc2c(cc1OC)-c1c3c(cc4ccnc(c14)C2=O)OCO3 [Compound 10, dicentrinone] |  |  |  |  |  |  |  |  |  |  |  | 36.9 ± 1.13 µM | > 20 µM | > 20 µM | > 20 µM | > 20 µM | > 20 µM | > 20 µM | 
15 | COc1cc(C2OCC3C(c4ccc(OC)c(OC)c4)OCC23)ccc1O (single isomer, unassigned; (-)) [Compound 2, (–)-phylligenin] | 36.1 ± 1.02 µM | > 20 µM | 32.5 ± 2.04 µM | > 20 µM |  | > 20 µM | > 20 µM | > 20 µM |  |  |  |  |  |  |  |  |  |  | 
